Several values for one entry are separate records, joined by “and”; a condition that tells them apart may be missing. Identical values can stand only once.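 Values below derive from 48-hour exposures of cells grown in 96-well plates, with endpoints linearly interpolated between the two concentrations bracketing the appropriate inhibition level. GI50 marks 50% less growth. The concentration for full growth arrest is given as TGI.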

Here are results for 28 compounds from PubChem BioAssay (NCI).

Among the test systems are M19-MEL melanoma; HOP-18 NSCLC; DMS 114 small cell lung; SNB-78 CNS; DLD-1 colon; LXFL 529 NSCLC; DMS 273 small cell lung; XF 498 CNS; MDA-N; P388/ADR leukemia; P388 leukemia; SN12K1 renal.
Assay in all cases: NCI tumour cell line growth inhibition, 48 h

As to `CCc1cccc(CC)c1NC1=CC(=O)C(=O)c2ccccc21`, the TGI in the experiment with M19-MEL melanoma came out at 17.2 µM; in the experiment on HOP-18 NSCLC, 62.9 µM; in the experiment with DMS 114 small cell lung it was 27.6 µM; in the experiment with SNB-78 CNS it was 80.6 µM; with DLD-1 colon, 49.7 µM; with LXFL 529 NSCLC, 48.8 µM. The compound further displayed a TGI in the experiment on DMS 273 small cell lung of 41.6 µM.

Take `O=C(Nc1cc(Cl)ccc1Cl)c1cc2ccccc2oc1=O`: the TGI was above 100 µM with M19-MEL melanoma; 83 µM with HOP-18 NSCLC; above 100 µM in the experiment with DMS 114 small cell lung; above 100 µM in the experiment on DLD-1 colon; above 100 µM in the experiment on DMS 273 small cell lung.

With `CC(=O)NNc1nc(C)c(C(=O)NNC(=O)C(=O)Nc2ccc(C)cc2[N+](=O)[O-])s1`, the TGI in the experiment with M19-MEL melanoma, in the experiment on HOP-18 NSCLC, in the experiment with DMS 114 small cell lung, in the experiment on SNB-78 CNS, in the experiment with DLD-1 colon and in the experiment with LXFL 529 NSCLC was above 100 µM throughout. For the same compound, in the experiment on DMS 273 small cell lung, the TGI was above 100 µM.

Regarding `BrC(/C=N/Nc1nnc(-c2ccccc2)c(-c2ccccc2)n1)C(Br)c1ccccc1` (stereo unspecified), the TGI was above 100 µM with M19-MEL melanoma; above 100 µM with DMS 114 small cell lung; 78.1 µM in the experiment with SNB-78 CNS; above 100 µM with DLD-1 colon; above 100 µM with DMS 273 small cell lung; 82.7 µM with XF 498 CNS.

Consider `Cc1c(Cl)ccc2[s+]snc12`, for which the TGI with M19-MEL melanoma is above 100 µM; in the experiment on HOP-18 NSCLC it was 95.2 µM; with SNB-78 CNS, above 100 µM; with DLD-1 colon, 62 µM; with LXFL 529 NSCLC it was 92 µM; in the experiment with DMS 273 small cell lung, above 100 µM. This compound also displayed a TGI in the experiment with XF 498 CNS of 55.2 µM.

With `Cc1cc2c(=O)cc(-c3ccncc3)oc2c(C(N)=O)c1C`, the TGI with M19-MEL melanoma, in the experiment with HOP-18 NSCLC, with SNB-78 CNS, in the experiment with LXFL 529 NSCLC, in the experiment with DMS 273 small cell lung and in the experiment on XF 498 CNS was above 100 µM in each case.

As to `Cc1nc2ccccc2c(=O)n1/N=C(\N=Nc1ccc(Cl)cc1)c1ccc(N(C)C)cc1`, the TGI in the experiment with M19-MEL melanoma, in the experiment with HOP-18 NSCLC, in the experiment with DMS 114 small cell lung, in the experiment on DLD-1 colon, in the experiment with LXFL 529 NSCLC and in the experiment with DMS 273 small cell lung was above 100 µM in each case. In the experiment with XF 498 CNS, this compound showed a TGI of 96.3 µM.

As for `C#CC[C@]12CC(=O)CC[C@H]1CC1(C2)OCCO1`, the TGI in the experiment with M19-MEL melanoma, with HOP-18 NSCLC, with DMS 114 small cell lung, in the experiment on SNB-78 CNS, in the experiment on DLD-1 colon and in the experiment on LXFL 529 NSCLC was above 100 µM throughout. This compound displayed a TGI with DMS 273 small cell lung above 100 µM.

For `CCCCP1(=O)C=CC(Cl)=C(C)C1` (stereo unspecified), the TGI with M19-MEL melanoma, with HOP-18 NSCLC, in the experiment on SNB-78 CNS, with DLD-1 colon and with LXFL 529 NSCLC was above 100 µM throughout.

For `COc1cc(CC2c3cc(OC)c(OC)cc3CCN2C)c(C(=O)O)cc1OC` (stereo unspecified), the TGI with M19-MEL melanoma, with HOP-18 NSCLC, in the experiment with DMS 114 small cell lung, in the experiment with SNB-78 CNS, in the experiment on DLD-1 colon and in the experiment on LXFL 529 NSCLC was above 100 µM in each case. Besides, the TGI in the experiment on DMS 273 small cell lung and in the experiment on XF 498 CNS was above 100 µM throughout.

`O=P(c1ccccc1)(c1ccccc1)C1CC=C2CCCCCC2C1` (stereo unspecified): the TGI with M19-MEL melanoma is above 100 µM; with HOP-18 NSCLC, 44.2 µM; with DMS 114 small cell lung, 68.2 µM; in the experiment with SNB-78 CNS, above 100 µM; with LXFL 529 NSCLC, 46.2 µM; with DMS 273 small cell lung, 64.5 µM. The TGI with XF 498 CNS amounted to 91.6 µM.

As for `C/C=C/C(C/C=C(\C)CO[Si](C)(C)C(C)(C)C)O[Si](C)(C)C(C)(C)C` (stereo unspecified), the TGI in the experiment with MDA-N is above 100 µM.

`c1c[nH]c(CN2CCN(Cc3ncc[nH]3)CC2)n1`: the TGI in the experiment with MDA-N was above 100 µM.

On to `N#CC1(C2CC(=O)N(c3ccccc3)C2=O)CCCCC1=O` (stereo unspecified), for which the TGI in the experiment on M19-MEL melanoma, with HOP-18 NSCLC, with DMS 114 small cell lung, in the experiment with SNB-78 CNS, with DLD-1 colon and in the experiment on LXFL 529 NSCLC was above 100 µM each time. Also, the TGI in the experiment on DMS 273 small cell lung and in the experiment on XF 498 CNS was above 100 µM each time.

Take `N#Cc1cccc(C2SCc3nc4ccccc4n32)c1` (stereo unspecified): the TGI in the experiment with DMS 114 small cell lung, in the experiment with SNB-78 CNS, with DLD-1 colon, with LXFL 529 NSCLC, in the experiment with DMS 273 small cell lung and with XF 498 CNS was above 100 µM throughout.

On to `CCC[CH2][Sn]1([CH2]CCC)[O]C(=O)c2cccnc2[S]1`, for which the GI50 with M19-MEL melanoma is 3.87 µM; with DMS 114 small cell lung, 1.64 µM; with SNB-78 CNS, 1.88 µM; in the experiment on DLD-1 colon, 3.94 µM; with LXFL 529 NSCLC, 1.33 µM; in the experiment on DMS 273 small cell lung, 3.38 µM. For the same compound, in the experiment with XF 498 CNS, the GI50 is 2 µM. Moreover, the TGI with M19-MEL melanoma came to 15.4 µM; in the experiment on DMS 114 small cell lung, 3.83 µM; with SNB-78 CNS, 5.76 µM; with DLD-1 colon it was 14.5 µM; in the experiment with LXFL 529 NSCLC, 2.98 µM; with DMS 273 small cell lung, 13.7 µM. In the experiment with XF 498 CNS, the TGI amounted to 3.5 µM.

For the compound `O=C(c1ccccc1)N1CCc2c([nH]c3ccccc23)C1`, the TGI in the experiment on M19-MEL melanoma was above 100 µM; in the experiment on HOP-18 NSCLC, above 100 µM; in the experiment on DMS 114 small cell lung, 65.1 µM; with DLD-1 colon, above 100 µM; in the experiment with LXFL 529 NSCLC, above 100 µM; with DMS 273 small cell lung, above 100 µM. The same compound had a TGI in the experiment with XF 498 CNS of 55 µM.

With `C/C(=N\NC(N)=S)c1ccc(Oc2ccccc2)cc1`, the TGI with M19-MEL melanoma was 47.2 µM; with HOP-18 NSCLC, 80 µM; in the experiment with DMS 114 small cell lung it was 17.9 µM; in the experiment with SNB-78 CNS, 47.7 µM; in the experiment with DLD-1 colon it was 16.9 µM; in the experiment with LXFL 529 NSCLC, 17.5 µM. The TGI in the experiment on DMS 273 small cell lung came out at 20.7 µM.

`CCN(CC)CCN1C(=O)c2cccc3cc(N)cc(c23)C1=O` displayed a TGI in the experiment on MDA-N of 23.8 µM.

`CS(=O)c1cc(=O)c2ccccc2s1` (stereo unspecified): the TGI in the experiment on M19-MEL melanoma is 11.9 µM; with HOP-18 NSCLC, 19.7 µM; with DMS 114 small cell lung, 9.87 µM; in the experiment with P388/ADR leukemia it was above 22.2 µM; with P388 leukemia, 6.79 µM; with SNB-78 CNS it was 27.6 µM. The TGI in the experiment with SN12K1 renal was determined as 32.8 µM; in the experiment with DLD-1 colon it was 5.6 µM; in the experiment on LXFL 529 NSCLC, 2.9 µM; with MDA-N, 7.13 µM; with DMS 273 small cell lung, 19.5 µM; in the experiment on XF 498 CNS, 7.57 µM.

Turning to `O=C(CC1(O)C(=O)Nc2ccc(Br)cc21)c1cccc([N+](=O)[O-])c1` (stereo unspecified), the TGI in the experiment on HOP-18 NSCLC, with SNB-78 CNS, in the experiment with DLD-1 colon, with LXFL 529 NSCLC and in the experiment with DMS 273 small cell lung was above 100 µM in each case.

With `O=C1C(=C2C(=O)c3ccccc3[N+]2=O)N([O-])c2ccccc21`, the TGI in the experiment with M19-MEL melanoma was 68.4 µM; in the experiment with HOP-18 NSCLC it was 71.5 µM; in the experiment with DMS 114 small cell lung, 33.9 µM; in the experiment with SNB-78 CNS, above 100 µM; in the experiment on DLD-1 colon it was 88.6 µM; in the experiment on LXFL 529 NSCLC it was 43.5 µM. For the same compound, the TGI in the experiment with DMS 273 small cell lung was determined as 89.5 µM.

In the case of `O=C1N(c2ccccc2)C2(O)C(=O)c3ccccc3C2(O)N1c1ccccc1` (stereo unspecified), the TGI with M19-MEL melanoma, in the experiment with HOP-18 NSCLC, in the experiment on DMS 114 small cell lung, in the experiment on SNB-78 CNS, in the experiment on DLD-1 colon and with LXFL 529 NSCLC was above 100 µM throughout. The TGI in the experiment with DMS 273 small cell lung is above 100 µM.

Regarding `CCOc1ccc(/C=C/C(=O)c2sc(NNC(C)=O)nc2C)cc1`, the TGI in the experiment on M19-MEL melanoma, in the experiment on HOP-18 NSCLC, in the experiment on DMS 114 small cell lung, in the experiment with SNB-78 CNS, in the experiment with DLD-1 colon and in the experiment with DMS 273 small cell lung was above 100 µM each time.

As for `CC1(C)OC2OC(/C=C/[N+](=O)[O-])C3OC(C)(C)OC3C2O1` (stereo unspecified), the TGI with M19-MEL melanoma came out at 27.7 µM; in the experiment with HOP-18 NSCLC, 40.8 µM; with DMS 114 small cell lung, 34.5 µM; with SNB-78 CNS it was 44 µM; with DLD-1 colon, 4.05 µM; in the experiment on LXFL 529 NSCLC it was 10.1 µM. The TGI in the experiment with DMS 273 small cell lung is 40.4 µM.

As for `O=C(/C=C/c1ccccc1)c1ccccn1`, the TGI in the experiment with MDA-N is 30.5 µM and 67.4 µM.

As for `C=CC(C)(C)[C@@]12CC3C(=O)N[C@@H](Cc4ccccc4)C(=O)N3[C@@H]1N(C(C)=O)c1ccccc12` (stereo partly specified), the TGI in the experiment with M19-MEL melanoma, in the experiment with HOP-18 NSCLC, with DMS 114 small cell lung, with SNB-78 CNS, with DLD-1 colon and with LXFL 529 NSCLC was above 100 µM throughout. Further, the TGI with DMS 273 small cell lung and in the experiment with XF 498 CNS was above 100 µM throughout.

`O=C(/C=C/c1c[nH]c2ccccc12)c1ccccc1O` showed a TGI in the experiment on MDA-N of 17.5 µM.
